These results are taken from US9931342B2, “Compositions and methods for the treatment of cancer” (Duke University, priority 2016, dated 2018).

Structures are written as SMILES.

One series has as its system 1833 breast cancer cells. Briefly: Breast cancer bone metastasis after intra-cardiac injection of 1833 cells in mice. It counts as in vivo. The source says: (A) Experimental design. (B) Survival of mice after intra-cardiac injection of 1833 (1×10^5) breast cancer cells and treatment with either dimethyl sulfoxide (DMSO) control or the allosteric ABL inhibitor GNF5. n=10 mice per group. (C) Bioluminescent images of representative mice at day 22 after inoculation. (D) Quantification of bone metastases. n=10 mice per group. (E and F) Representative H&E staining (E) and quantification (F) of H&E stained tumor area of bone lesions. Arrows indicate tumor. n=3 mice per group. Scale bar, 200 μm. (G and H) Representative x-ray and μCT reconstruction (G) of mouse tibias and quantification (H) of bone volume/total volume. n=3 mice per group.
Procedures involving mice were approved and performed following the guidelines of the Institutional Animal Care and Use Committee (IACUC) of Duke University Division of Laboratory Animal Resources (DLAR). Age-matched female athymic NCr nu/nu mice (5 to 6 weeks old) were used for xenograft experiments. For intra-cardiac injections, cells were harvested from sub-confluent culture plates, washed with phosphate-buffered saline (PBS), and resuspended at 106/ml (1833) or 5×10^6/ml (SCP28) in PBS; 0.1 ml of the suspended cells was injected into the left cardiac ventricle using 30-gauge needles. Mice were anesthetized with isoflurane before injection and imaged by bioluminescence imaging. For intra-tibial injections, mice were anesthetized using a mixture of ketamine (100 mg/kg) and xylazine (10 mg/kg). The injection site was cleaned with a 70% alcohol wipe. Single-cell suspensions (1×10^5 cells) in a final volume of […] were injected into the upper half of the tibia medullary cavity, as felt by a lack of resistance when pushing cells into the cavity. Bioluminescence imaging was used to confirm successful cancer cell inoculation and progression of metastatic bone lesions. The allosteric inhibitor GNF5 was synthesized by the Duke University Small Molecule Synthesis Facility. For drug treatment, the mice were dosed daily with GNF5 in DMSO/peanut oil (1:9) at 50 mg/kg by intraperitoneal injection.
Hind limb bones were excised, fixed in 10% neutral-buffered formalin, and imaged using a μCT scanner (SkyScan 1176, Bruker Corp.) at […] and 180° scanning with a rotation step of 0.7° per image, 242-ms exposure time, 55-kV photon energy, and […]. The images were reconstructed using NReconServer, and bone volume was analyzed by CT analysis software (CTAn, Bruker Corp.).
Hind limb bones were excised, fixed in 10% neutral-buffered formalin, decalcified, and embedded in paraffin for H&E staining (Zhang et al., Cancer Cell, 2009).

The next series has as its system RAF-ERK pathway. Briefly: ERK activation, Western blot of 1833 breast cancer cell lysates. The following applies: 10 μM, 3 hours, 1833 cells. It counts as cell-based, human. As to the method: (§1) Cells were lysed in radio-immunoprecipitation assay buffer with protease and phosphatase inhibitors. Cell debris was removed by microcentrifugation, and protein was quantified. Alternatively, equal cell numbers were plated onto six-well plates, and 24 hours later, conditioned medium was harvested and concentrated using Amicon Ultra Centrifugal Filters (Millipore). Equal amounts of protein or conditioned medium were separated by SDS-polyacrylamide gel electrophoresis and transferred onto nitrocellulose membranes and probed with the indicated antibodies.
(In general: A western blot detects proteins with antibodies after separation by electrophoresis.)

A further series deals with TAZ. Briefly: TAZ protein abundance, immunoblot of 1833 cells. It counts as cell-based, human. The note with it: 20 μM, 24 hours. How it is done:
Control 1833 cells or 1833 cells expressing murine Ab12-E505K mutant protein were plated (3×10^5 cells per group) in six well plates. Cells were then treated with vehicle (DMSO) or GNF5 (20 μM) for 24 hours and immunoblotted with the indicated antibodies. n=3 blots.
as §1

The test system of another series is FH-deficient HLRCC. The following applies: cited from earlier work.
Where [1] appears, read: 50 mg/kg daily i.p. starting day 8.

Regarding `O=C(NCCO)c1cccc(-c2cc(Nc3ccc(OC(F)(F)F)cc3)ncn2)c1` [GNF5], in the series with 1833 breast cancer cells (setting [1]), the “bone destruction (x-ray, μCT)” value is “decreased” and the “bone tumor burden by histological analyses (H&E)” value is listed as “decrease”. Moreover, the “bone metastasis burden by bioluminescence imaging” value in the series with 1833 breast cancer cells (50 mg/kg daily i.p. starting day 8, day 22 imaging) is “decrease”. Further, the “ratio of bone volume to total volume (μCT)” value in the series on 1833 breast cancer cells (50 mg/kg daily i.p. starting day 8, mouse tibias) is listed as “increased”. The “survival of tumor-bearing mice” value in the series with 1833 breast cancer cells (50 mg/kg daily i.p. starting day 8 after intra-cardiac injection) is “significant increase”. Further, in the series with RAF-ERK pathway, the “ERK activation (phospho-Erk)” value is “does not activate”. The TAZ protein abundance result in the series on TAZ (1833 cells expressing murine ABL2-E505K (GNF5-resistant mutant)) is reported as “not decreased”. Moreover, the TAZ protein abundance result in the series on TAZ (control 1833 cells) is given as “decreased”.

`Cc1ccc(NC(=O)c2ccc(CN3CCN(C)CC3)cc2)cc1Nc1nccc(-c2cccnc2)n1` [imatinib]: in the series on RAF-ERK pathway, the “ERK activation (phospho-Erk)” value was “promotes ERK activation”. In the series on FH-deficient HLRCC, the “cytotoxicity to FH-deficient HLRCC” value was “cytotoxic”.

Consider `COc1cc2c(Nc3ccc(Br)cc3F)ncnc2cc1OCC1CCN(C)CC1` [vandetanib], for which the “cytotoxicity to FH-deficient HLRCC” value with FH-deficient HLRCC is “cytotoxic”.
